Laboratory results published in patent publication US20250339494A1, “COMPOUNDS INDUCING PRODUCTION OF PROTEINS BY IMMUNE CELLS” (UNIVERSITE PARIS CITE, priority 2022, published 2025).

Test system: Human B cells
Experiment: IL-10 induction in human B cells cultivated 2 days with anti-IgM plus CpG; IL-10 measured in cell culture supernatants
Assay type: cell-based
Conditions: 2 consecutive days, molecule at 0.25 μM final concentration, culture supernatant
Protocol: Human B cells isolated magnetically through negative selection (B Cell Isolation Kit II, human, Miltenyi ref: 130-091-151) were cultivated for 2 consecutive days in the presence of anti-IgM plus CpG in the presence of the indicated molecule (see table 3) at 0.25 μM final concentration. IL-10 was measured in cell culture supernatants.
Human B cells isolated magnetically through negative selection (B Cell Isolation Kit II, human, Miltenyi ref: 130-091-151) were cultivated for 2 consecutive days in the presence of anti-IgM plus CpG in the presence of DMSO (as control) or in the presence of the indicated molecule (as identified in the attached excel file) at 0.25 microM final concentration. IL-10 was measured in cell culture supernatants. NS: non stimulated B cell culture condition.

Substance: 2-methoxy-N-(1-methyl-2-(pyridin-3-yl)-1H-imidazo[4,5-b]pyridin-5-yl)benzamide + 2-methoxy-N-(3-methyl-2-(pyridin-3-yl)-3H-imidazo[4,5-b]pyridin-5-yl)benzamide [Compound 131]
- IL-10 Induction Mean (pg/mL) human: 1.85 pg/mL
